{"source": "patent US7883889B2", "about": "“Antigen presenting cells, method for their preparation and their use for cancer vaccines” (priority 2001, dated 2011)", "key": {"[1]": {"test_system": "normal and malignant lymphoid cells", "conditions": "Shichijo S. et al Jpn. J. Cancer Res. 87, 751-756, 1996; cited from earlier work"}, "[2]": {"test_system": "PWM-activated B-Lymphocytes", "test": "RT-PCR analysis of CTA expressed by ADHAPI-Cells/PWM-B and control PWM-B cells", "assay_type": "cell-based, human", "conditions": "5-AZA-CdR: four pulses of 1 μM every 12 h, then 48 h culture (= ADHAPI-Cells/PWM-B)", "experimental": "(§1) Experimental conditions and primers utilized to assess CTA expression on investigated cells were as follows:\nPurified B-Lymphocytes (1.5×10^6 cells/ml) were added with PWM (3 μg/ml) and cultured for 48 h at 37° C. in a 5% CO2 humidified atmosphere in Basal Iscove's medium supplemented with 10% heat-inactivated human AB serum, 2 mM L-glutamine, 100 U/ml penicillin, 100 μg/ml streptomycin sulphate.\n(§2) PWM-activated B-Lymphocytes were pulsed four times with 1 μM 5-aza-2′-deoxycytidine (5-AZA-CdR) every 12 h; then, half of the culture medium was replaced with fresh medium and cultures were allowed to proceed for additional 48 h. Then cells were utilized for experimental procedures and/or frozen under viable conditions. Control cells (PWM-B) were cultured under similar experimental conditions but without pulses of 5-AZA-CdR."}, "PHA+PWM-activated PBMC": {"test_system": "PHA+PWM-activated PBMC", "test": "RT-PCR analysis of CTA expressed by ADHAPI-Cells/PHA+PWM-PBMC and control PHA+PWM-PBMC", "assay_type": "cell-based, human", "conditions": "5-AZA-CdR: four pulses of 1 μM every 12 h, then 48 h culture (= ADHAPI-Cells/PHA+PWM-PBMC)", "experimental": "as §1\nPBMC (1.5×10^6 cells/ml) were added with PHA-M (10 μg/ml), PWM (3 μg/ml), 100 UI/ml rhIL-2 and cultured for 48 h at 37° C. in a 5% CO2 humidified atmosphere in Basal Iscove's medium supplemented with 10% heat-inactivated human AB serum (or with 10% heat-inactivated autologous serum), 2 mM L-glutamine, 100 U/ml penicillin, 100 μg/ml streptomycin sulphate (complete medium).\n(§3) PHA+PWM-activated PBMC were pulsed four times with 1 μM 5-aza-2′-deoxycytidine (5-AZA-CdR) every 12 h; then, half of the culture medium was replaced with fresh complete medium without PHA or PWM and cultures were allowed to proceed for additional 48 h. Then cells were utilized for experimental procedures and/or frozen under viable conditions. Control cells (PHA+PWM-PBMC) were cultured under similar experimental conditions but without pulses of 5-AZA-CdR."}, "[3]": {"test_system": "B-EBV+ lymphoblastoid cell lines", "test": "RT-PCR analysis of CTA expressed by ADHAPI-Cells/B-EBV and control B-EBV cells", "assay_type": "cell-based, human", "conditions": "5-AZA-CdR: four pulses of 1 μM every 12 h, then 48 h culture (= ADHAPI-Cells/B-EBV)", "experimental": "B-EBV+ lymphoblastoid cell lines (7.5×10^5 cells/ml) were cultured in RPMI 1640 medium supplemented with 10% heat-inactivated foetal calf serum (or 10% heat-inactivated human AB serum) and 2 mM L-glutamine at 37° C. in a 5% CO2 humidified atmosphere, and pulsed four times with 1 μM 5-aza-2′-deoxycytidine (5-AZA-CdR) every 12 h; then, half of the culture medium was replaced with fresh medium and cultures were allowed to proceed for additional 48 h. Then cells were utilized for experimental procedures and/or frozen under viable conditions. Control cells (B-EBV cells) were cultured under similar experimental conditions but without pulses of 5-AZA-CdR.\nExperimental conditions and primers utilized to assess CTA expression on investigated cells were as follows: […]"}, "[4]": {"test_system": "NIH3T3-CD40L-activated PBMC", "test": "RT-PCR analysis of CTA expressed by ADHAPI-Cells/CD40L-B and control CD40L-B cells", "assay_type": "cell-based, human", "conditions": "5-AZA-CdR: four pulses of 1 μM every 12 h, restimulation with NIH3T3-CD40L, then 48 h (= ADHAPI-Cells/CD40L-B)", "experimental": "as §1\nPBMC (2×10^6 cells/ml) were co-cultured with semiconfluent, x-ray treated (75 Gy) NIH3T3-CD40L at 37° C. in a 5% CO2 humidified atmosphere, in Basal Iscove's medium supplemented with 10% heat-inactivated human AB serum, 2 mM L-glutamine, 2 ng/ml recombinant human (rh) interleukin 4 (rhIL-4), 50 μg/ml human transferrin, 5 μg/ml rh insulin, 5.5×10^−7 M cyclosporin A (CsA), 100 U/ml penicillin, and 100 μg/ml streptomycin sulphate (complete medium). After six days of incubation, PBMC were collected, washed twice with HBSS, resuspended at 1×10^6 cells/ml in complete medium and co-cultured for additional 3 days at 37° C. in a 5% CO2 humidified atmosphere with NIH3T3-CD40L freshly prepared as described above. This procedure was repeated every 2-3 days to a maximum culture time of 16-18 days.\nAfter 16-18 days of culture, activated PBMC were harvested and restimulated with NIH3T3-CD40L as described above; after an O/N incubation at 37° C. in a 5% CO2 humidified atmosphere, cultures were pulsed four times with 1 μM 5-aza-2′-deoxycytidine (5-AZA-CdR) every 12 h; then, cells were harvested and restimulated with NIH3T3-CD40L as described above and cultures were allowed to proceed for additional 48 h. Then cells were utilized for experimental procedures and/or frozen under viable conditions. Control cells (CD40L-B cells) were cultured under similar experimental conditions but without pulses of 5-AZA-CdR."}, "PWM-activated PBMC": {"test_system": "PWM-activated PBMC", "test": "RT-PCR analysis of CTA expressed by ADHAPI-Cells/PWM-PBMC and control PWM-PBMC cells", "assay_type": "cell-based, human", "conditions": "5-AZA-CdR: four pulses of 1 μM every 12 h, then 48 h culture (= ADHAPI-Cells/PWM-PBMC)", "experimental": "as §1\nPBMC (1.5×10^6 cells/ml) were added with PWM (3 μg/ml) and cultured for 48 h at 37° C. in a 5% CO2 humidified atmosphere in Basal Iscove's medium supplemented with 10% heat-inactivated human AB serum, 2 mM L-glutamine, 100 U/ml penicillin, 100 μg/ml streptomycin sulphate.\nas §2, with “PBMC” for “B-Lymphocytes”, “(PWM-PBMC)” for “(PWM-B)”"}, "PHA-activated PBMC": {"test_system": "PHA-activated PBMC", "test": "RT-PCR analysis of CTA expressed by ADHAPI-Cells/PHA-PBMC and control PHA-PBMC", "assay_type": "cell-based, human", "conditions": "5-AZA-CdR: four pulses of 1 μM every 12 h, then 48 h culture (= ADHAPI-Cells/PHA-PBMC)", "experimental": "as §1\nPBMC (1.5×10^6 cells/ml) were added with PHA-M (10 μg/ml) and 100 UI/ml rhIL-2, and cultured for 48 h at 37° C. in a 5% CO2 humidified atmosphere in RPMI 1640 medium supplemented with 10% heat-inactivated foetal calf serum (or in Basal Iscove's medium supplemented with 10% heat-inactivated human AB serum), 2 mM L-glutamine, 100 U/ml penicillin, 100 μg/ml streptomycin sulphate (complete medium).\nas §3, with “PHA-activated” for “PHA+PWM-activated”, “PHA-M” for “PHA or PWM”, “(PHA-PBMC)” for “(PHA+PWM-PBMC)”"}}, "data": [{"smiles": "Nc1ncn([C@H]2C[C@H](O)[C@@H](CO)O2)c(=O)n1", "note": "[5-AZA-CdR, 5-aza-2′-deoxycytidine]", "values": [{"measurement": "induction of MAGE 1, 2, 3 and 6", "setting": "[1]", "value": "induction of investigated CTA in selected samples tested"}, {"measurement": "GAGE-1-6 expression (RT-PCR)", "setting": "[2]", "value": "4/4"}, {"measurement": "MAGE-1 expression (RT-PCR)", "setting": "[2]", "value": "4/4"}, {"measurement": "MAGE-2 expression (RT-PCR)", "setting": "[2]", "value": "4/4"}, {"measurement": "MAGE-3 expression (RT-PCR)", "setting": "[2]", "value": "4/4"}, {"measurement": "MAGE-4 expression (RT-PCR)", "setting": "[2]", "value": "4/4"}, {"measurement": "NY-ESO-1 expression (RT-PCR)", "setting": "[2]", "value": "4/4"}, {"measurement": "SSX-2 expression (RT-PCR)", "setting": "[2]", "value": "4/4"}, {"measurement": "GAGE-1-6 expression (RT-PCR)", "setting": "PHA+PWM-activated PBMC", "value": "7/7"}, {"measurement": "MAGE-1 expression (RT-PCR)", "setting": "PHA+PWM-activated PBMC", "value": "7/7"}, {"measurement": "MAGE-2 expression (RT-PCR)", "setting": "PHA+PWM-activated PBMC", "value": "7/7"}, {"measurement": "MAGE-3 expression (RT-PCR)", "setting": "PHA+PWM-activated PBMC", "value": "7/7"}, {"measurement": "MAGE-4 expression (RT-PCR)", "setting": "PHA+PWM-activated PBMC", "value": "7/7"}, {"measurement": "NY-ESO-1 expression (RT-PCR)", "setting": "PHA+PWM-activated PBMC", "value": "7/7"}, {"measurement": "SSX-2 expression (RT-PCR)", "setting": "PHA+PWM-activated PBMC", "value": "7/7"}, {"measurement": "GAGE-1-6 expression (RT-PCR)", "setting": "[3]", "value": "4/4"}, {"measurement": "MAGE-1 expression (RT-PCR)", "setting": "[3]", "value": "4/4"}, {"measurement": "MAGE-3 expression (RT-PCR)", "setting": "[3]", "value": "4/4"}, {"measurement": "NY-ESO-1 expression (RT-PCR)", "setting": "[3]", "value": "4/4"}, {"measurement": "SSX-2 expression (RT-PCR)", "setting": "[3]", "value": "4/4"}, {"measurement": "GAGE-1-6 expression (RT-PCR)", "setting": "[4]", "value": "14/14"}, {"measurement": "MAGE-1 expression (RT-PCR)", "setting": "[4]", "value": "10/10"}, {"measurement": "MAGE-2 expression (RT-PCR)", "setting": "[4]", "value": "9/10"}, {"measurement": "MAGE-3 expression (RT-PCR)", "setting": "[4]", "value": "10/11"}, {"measurement": "MAGE-4 expression (RT-PCR)", "setting": "[4]", "value": "11/11"}, {"measurement": "NY-ESO-1 expression (RT-PCR)", "setting": "[4]", "value": "14/14"}, {"measurement": "SSX-2 expression (RT-PCR)", "setting": "[4]", "value": "13/14"}, {"measurement": "GAGE-1-6 expression (RT-PCR)", "setting": "PWM-activated PBMC", "value": "3/4"}, {"measurement": "MAGE-1 expression (RT-PCR)", "setting": "PWM-activated PBMC", "value": "4/4"}, {"measurement": "MAGE-2 expression (RT-PCR)", "setting": "PWM-activated PBMC", "value": "3/4"}, {"measurement": "MAGE-3 expression (RT-PCR)", "setting": "PWM-activated PBMC", "value": "4/4"}, {"measurement": "MAGE-4 expression (RT-PCR)", "setting": "PWM-activated PBMC", "value": "3/4"}, {"measurement": "NY-ESO-1 expression (RT-PCR)", "setting": "PWM-activated PBMC", "value": "4/4"}, {"measurement": "SSX-2 expression (RT-PCR)", "setting": "PWM-activated PBMC", "value": "3/4"}, {"measurement": "GAGE-1-6 expression (RT-PCR)", "setting": "PHA-activated PBMC", "value": "4/4"}, {"measurement": "MAGE-1 expression (RT-PCR)", "setting": "PHA-activated PBMC", "value": "12/12"}, {"measurement": "MAGE-2 expression (RT-PCR)", "setting": "PHA-activated PBMC", "value": "3/3"}, {"measurement": "MAGE-3 expression (RT-PCR)", "setting": "PHA-activated PBMC", "value": "12/12"}, {"measurement": "MAGE-4 expression (RT-PCR)", "setting": "PHA-activated PBMC", "value": "4/4"}, {"measurement": "NY-ESO-1 expression (RT-PCR)", "setting": "PHA-activated PBMC", "value": "6/6"}, {"measurement": "SSX-2 expression (RT-PCR)", "setting": "PHA-activated PBMC", "value": "6/6"}]}]}
